Measured values published in PMC11915509, “Small molecule inhibitors of hnRNPA2B1–RNA interactions reveal a predictable sorting of RNA subsets into extracellular vesicles” (Nucleic Acids Research, 2025).

System: hnRNPA2B1 and TDP43 bound RNA (miR-221, miR-1910)
Assay: RNA immunoprecipitation (RIP) on cytoplasmic lysates of treated NSC34 cells
Assay type: cell-based, mouse
Conditions: 6 h treatment, anti-hnRNPA2B1 and anti-TDP43 RIP
Protocol: Flow cytometry of a fraction of RNA immunoprecipitation (RIP) experiments, consisting of RNA/protein-antibody-bead complexes, was performed on the same instrument using a sequential gating with Streptavidin beads alone ± antibodies (this signal corresponded to background). Pyronin Y (PY) was used at a final concentration of 50 ng/ml and the PY-positive events recorded for 1 min.
Approximately 2 × 10^6 cells were used for each RIP experiment, performed as already described, without cross-linking steps and using 0.5 μg/ml of antibodies. Beads-precipitated samples were divided for immunoblotting or TRIzol-based RNA isolation. Densitometric analysis obtained using Image J software (v.1.54). miRNA TaqMan probes were bought from Thermo Fisher with the following codes: miR-221 (477 981), miR-1910 (479 581), and miR-126 (4 427 975).

O=C1C=C2CC3(O)COc4c(ccc(O)c4O)C3=C2C=C1O (stereo not shown) [H, hematein]
percentage of bound targets (miR-221, miR-1910): significantly reduced
